Measurements taken from patent US10226045B2, “Azoline compounds” (priority 2014, dated 2019).

Columns and labels:
Format in all cases: in vivo
[1] = system: Southern Armyworm (Spodoptera eridania); assay: Southern armyworm, sprayed lima bean plants; settings: 96 h, 1 ppm, larvae on sprayed lima bean plants, 4 days after treatment, in comparison with untreated controls, read-out: mortality
Experimental: B.10 Southern Armyworm (Spodoptera eridania)
The active compounds were formulated in cyclohexanone as a 10,000 ppm solution supplied in tubes. The tubes were inserted into an automated electrostatic sprayer equipped with an atomizing nozzle and they served as stock solutions for which lower dilutions were made in 50% acetone:50% water (v/v). A nonionic surfactant (Kinetic®) was included in the solution at a volume of 0.01% (v/v).
Lima bean plants (variety Sieva) were grown 2 plants to a pot and selected for treatment at the 1st true leaf stage. Test solutions were sprayed onto the foliage by an automated electrostatic plant sprayer equipped with an atomizing spray nozzle. The plants were dried in the sprayer fume hood and then removed from the sprayer. Each pot was placed into perforated plastic bags with a zip closure. About 10 to 11 armyworm larvae were placed into the bag and the bags zipped closed. Test plants were maintained in a growth room at about 25° C. and about 20-40% relative humidity for 4 days, avoiding direct exposure to fluorescent light (24 hour photoperiod) to prevent trapping of heat inside the bags. Mortality and reduced feeding were assessed 4 days after treatment, compared to untreated control plants.

[2] = system: Neotropical Brown Stink Bug (Euschistus heros); assay: Neotropical brown stink bug, sprayed soybean pods in cups; settings: 120 h, 100 ppm, adults on soybean pods, after 5 days, in comparison with untreated controls, read-out: mortality
Experimental: B.12 Neotropical Brown Stink Bug (Euschistus heros)
The active compound was dissolved at the desired concentration in a mixture of 1:1 (vol:vol) distilled water: acetone. Surfactant (Kinetic HV) was added at a rate of 0.01% (vol/vol). The test solution was prepared at the day of use.
Soybean pods were placed in microwavable plastic cups and inoculated with ten adult stage E. heros. Using a hand atomizer, approximately 1 ml solution is sprayed into each cup, insects and food present. A water source was provided (cotton wick with water). Each treatment was replicated 2-fold. Assay arenas were kept at about 25° C. Percent mortality was recorded after 5 days.

[3] = system: Mediterranean Fruitfly (Ceratitis capitata); assay: Mediterranean fruitfly, insect diet microtiter plate test; settings: 120 h, 2500 ppm, eggs on sprayed insect diet, egg and larval mortality after 5 days, in comparison with untreated controls, read-out: mortality
Experimental: B.6 Mediterranean Fruitfly (Ceratitis capitata)
For evaluating control of Mediterranean fruitfly (CeratitiS capitata) the test unit consisted of microtiter plates containing an insect diet and 50-80 C. capitata eggs. The compounds were formulated using a solution containing 75% v/v water and 25% v/v DMSO. Different concentrations of formulated compounds were sprayed onto the insect diet at 5 μl, using a custom built micro atomizer, at two replications.
(§1) After application, microtiter plates were incubated at about 28±1° C. and about 80±5% relative humidity for 5 days. Egg and larval mortality was then visually assessed.

[4] = system: Diamond Back Moth (Plutella xylostella); assay: Diamond back moth, cabbage leaf dip test; settings: foliar, 300 ppm, 3rd instar larvae on dipped cabbage leaves, 72 hours after treatment, in comparison with untreated controls, read-out: mortality
Experimental: B.1 Diamond Back Moth (Plutella xylostella)
The active compound was dissolved at the desired concentration in a mixture of 1:1 (vol:vol) distilled water:aceteone. Surfactant (Kinetic HV) was added at a rate of 0.01% (vol/vol). The test solution was prepared at the day of use.
Leaves of cabbage were dipped in test solution and air-dried. Treated leaves were placed in petri dishes lined with moist filter paper and inoculated with ten 3rd instar larvae. Mortality was recorded 72 hours after treatment.

[5] = system: Red Spider Mite (Tetranychus kanzawai); assay: Red spider mite, sprayed cowpea beans; settings: 300 ppm, mites on sprayed cowpea beans, 72 hours after treatment, in comparison with untreated controls, read-out: mortality
Experimental: B.9 Red Spider Mite (Tetranychus kanzawai)
The active compound was dissolved at the desired concentration in a mixture of 1:1 (vol:vol) distilled water:acetone. Add surfactant (Kinetic HV) was added at a rate of 0.01% (vol/vol). The test solution was prepared at the day of use.
Potted cowpea beans of 4-5 days of age were cleaned with tap water and sprayed with 1-2 ml of the test solution using air driven hand atomizer. The treated plants were allowed to air dry and afterwards inoculated with 30 or more mites by clipping a cassava leaf section from rearing population. Treated plants were placed inside a holding room at about 25-27° C. and about 50-60% relative humidity. Percent mortality was assessed 72 hours after treatment.

[6] = system: Rice Green Leafhopper (Nephotettix virescens); assay: Rice green leafhopper, sprayed rice seedlings; settings: 300 ppm, adults on sprayed rice seedlings, after 72 hours, in comparison with untreated controls, read-out: mortality
Experimental: B.8 Rice Green Leafhopper (Nephotettix virescens)
Rice seedlings were cleaned and washed 24 hours before spraying. The active compounds were formulated in 1:1 acetone:water (vol:vol), and 0.01% vol/vol surfactant (Kinetic HV) was added. Potted rice seedlings were sprayed with 5-6 ml test solution, air dried, covered with Mylar cages cages and inoculated with 10 adults. Treated rice plants were kept at about 28-29° C. and relative humidity of about 50-60%. Percent mortality was recorded after 72 hours.

[7] = system: Boll Weevil (Anthonomus grandis); assay: Boll weevil, insect diet microtiter plate test; settings: 120 h, 2500 ppm, eggs on sprayed insect diet, egg and larval mortality after 5 days, in comparison with untreated controls, read-out: mortality
Experimental: B.5 Boll Weevil (Anthonomus grandis)
For evaluating control of boll weevil (Anthonomus grandis) the test unit consisted of 96-well-microtiter plates containing an insect diet and 5-10 A. grandis eggs.
The compounds were formulated using a solution containing 75% v/v water and 25% v/v DMSO. Different concentrations of formulated compounds were sprayed onto the insect diet at 5 μl, using a custom built micro atomizer, at two replications.
After application, microtiter plates were incubated at about 25±1° C. and about 75±5% relative humidity for 5 days. Egg and larval mortality was then visually assessed.

[8] = system: Vetch Aphid (Megoura viciae); assay: Vetch aphid, broad bean leaf disk test; settings: foliar, 120 h, 2500 ppm, adult aphids on sprayed broad bean leaf disks, 5 days, in comparison with untreated controls, read-out: mortality
Experimental: B.3 Vetch Aphid (Megoura viciae)
For evaluating control of vetch aphid (Megoura viciae) through contact or systemic means the test unit consisted of 24-well-microtiter plates containing broad bean leaf disks.
The compounds were formulated using a solution containing 75% v/v water and 25% v/v DMSO. Different concentrations of formulated compounds were sprayed onto the leaf disks at 2.5 μl, using a custom built micro atomizer, at two replications.
After application, the leaf disks were air-dried and 5-8 adult aphids placed on the leaf disks inside the microtiter plate wells. The aphids were then allowed to suck on the treated leaf disks and incubated at about 23±1° C. and about 50±5% relative humidity for 5 days. Aphid mortality and fecundity was then visually assessed.

[9] = system: Tobacco Budworm (Heliothis virescens); assay: Tobacco budworm, insect diet microtiter plate test; settings: 120 h, 2500 ppm, eggs on sprayed insect diet, egg and larval mortality after 5 days, in comparison with untreated controls, read-out: mortality
Experimental: B.4 Tobacco Budworm (Heliothis virescens)
For evaluating control of tobacco budworm (HeliothiS virescens) the test unit consisted of 96-well-microtiter plates containing an insect diet and 15-25 H. virescens eggs.
The compounds were formulated using a solution containing 75% v/v water and 25% v/v DMSO. Different concentrations of formulated compounds were sprayed onto the insect diet at 10 μl, using a custom built micro atomizer, at two replications.
as §1

O=C(NC1CS(=O)(=O)C1)c1ccc(C2=NCC(c3cc(Cl)c(F)c(Cl)c3)(C(F)(F)F)C2)c2c1CCC2 (stereo not drawn) [Compound 2-3, 7-[3-(3,5-Dichloro-4-fluoro-phenyl)-3-(trifluoromethyl)-2,4-dihydropyrrol-5-yl]-N-(1,1-dioxothietan-3-yl)indane-4-carboxamide]
≥ 75%: mortality at 1 ppm [1] | mortality at 100 ppm [2] | mortality at 2500 ppm [3] | mortality at 300 ppm [4] | mortality at 300 ppm [5] | mortality at 300 ppm [6] | mortality at 2500 ppm [7] | mortality at 2500 ppm [8] | mortality at 2500 ppm [9]
